The values below come from paper PMC12009420, “Dynamically chiral phosphonic acid-type metallo-β-lactamase inhibitors” (Communications Chemistry, 2025).

Read-outs that look alike come from different tables or passages of the source.

Data set [1] in a line: Long term stability in buffer with 2.5% DMSO (LC-MS). The data set is classed as physicochemical. Conditions: 20 mM KPO4, 0.1 mM ZnCl2, pH 7.0 + 2.5% DMSO; LC-MS 254 nm. From the text:
Reagents, reactants, solvents and drying agents for synthesis, work-up and purification were purchased from commercial vendors (Sigma-Aldrich, VWR, Merck, Fluorochem, Thermo Fisher Scientific, Solveco), and if not stated otherwise they were used without further purification. Reactions and long term stability of the final compounds in buffer were monitored using LC-MS (Agilent 1260 Infinity II) equipped with an ESI-Q detector (Infinitylab LC-MSD) using Agilent InfinityLab Poroshell 120 C18 columns (2.7 μm, ϕ 2.1 mm L 50 mm or 2.7 μm, ϕ 4.6 mm L 50 mm). The intermediates were purified using VWR silica gel 60 (40–63 μm) with a Biotage Isolera One flash column chromatography instrument. The final products were purified with preparative RP-HPLC (VWR LaPrep P110) with single wavelength detection (254 nm), using a Kinetex C8 column (5 μm, 100 Å, ϕ 21.2 mm L 250 mm) and gradients of CH3CN/H2O + 0.1% formic acid as the mobile phase at a 10 mL/min flow rate. Analytical HPLC data were acquired on a VWR LaChrome ELITE system using an ACE3 C8 (3 μm, 300 Å, ϕ 3.0 mm L 100 mm) or a Kinetex C18 columns (5 μm, 100 Å, ϕ 3.0 mm L 150 mm). NMR spectra were recorded on a Varian Agilent MR400-DD2 400 MHz spectrometer equipped with a OneNMR probe, Bruker Avance Neo 500 MHz spectrometer equipped with a cryogenic TXO probe, or a Bruker Avance Neo 600 MHz spectrometer equipped with a TCI cryogenic probe. The chemical shifts are reported using the residual solvent signal as an indirect reference to TMS.
4. Long term stability of the final compounds in buffer with 2.5% DMSO
The long term stability of the final compounds in buffer (20 mM KPO4, 0.1 mM ZnCl2, pH 7.0 + 2.5% DMSO) were monitored using LC-MS (Agilent 1260 Infinity II) equipped with an ESI-Q detector (Infinitylab LC-MSD) using Agilent InfinityLab Poroshell 120 C18 column (2.7 μm, ϕ 4.6 mm L 50 mm) at 254 nm with a 7 min long gradient method (5% to 95% CH3CN) of CH3CN/H2O + 0.1% formic acid as the mobile phase at a 1.0 mL/min flow rate. The samples were measured right after dissolving them in buffer, and after 1 month of keeping the same samples dissolved in the same buffer. The main peaks (> 95%) and impurities with > 1% are […]
Figure S14. Compound 5a right after dissolving it in buffer.
Figure S15. Compound 5a kept in buffer for 1 month. […]

Data set [2] concerns the target T1, GIM-1 (Pseudomonas aeruginosa, UniProt Q704V1). The experiment in a line: Enzymatic metallo-β-lactamase assay on purified GIM-1. The class given is biochemical. As to conditions: approximated from Dixon plots (1/v vs [I]) at one constant substrate concentration; ± SE; read-out: Estimated inhibition constant Ki GIM-1.
A further data set addresses NDM-1 (Klebsiella pneumoniae, UniProt C7C422). The experiment in a line: Enzymatic metallo-β-lactamase assay on purified NDM-1. The class given is biochemical. Conditions: for Ki: approximated from Dixon plots (1/v vs [I]) at one constant substrate concentration, ± SE, read-out: Estimated inhibition constant Ki NDM-1; for logIC50 NDM-1: log of IC50, ± SEM of logIC50; for IC50: purified enzyme 5 nM, imipenem 30 μM, pH 7.2, 25 °C. As for the experimental part: (§1) A few inhibitors were tested up to 1600 μM to ensure nearly complete inhibition. Solutions of 100 μL consisting of buffer, purified enzyme (1 nM for GIM-1 and VIM-2, 5 nM for NDM-1), inhibitor and reporter substrate nitrocefin (15 μM for VIM-2, 2 μM for GIM-1) or imipenem (30 μM for NDM-1) were incubated in triplicates on a 96 well plate for 5 min at 25 °C. Buffer solution consisted of 50 mM HEPES pH 7.2, 50 μM ZnSO4 and 0.4 mg/ml bovine serum albumine. Inhibitors were dissolved in DMSO but diluted to assure <2% DMSO in measured assay. Absorbance was measured at 482 nm (nitrocefin) and 300 nm (imipenem) on a SpectraMax M4 spectrophotometer. The initial velocity at each inhibitor concentration was analyzed in GraphPad Prism v9.3.1 and fitted to dose-response curves by non-linear regression (log [inhibitor] vs response) used to calculate IC50 (Supplementary Tables S2–5).

Data set [3] addresses T1, GIM-1. The experiment in a line: Enzymatic metallo-β-lactamase assay on purified GIM-1. Conditions: for logIC50 GIM-1: log of IC50, ± SEM of logIC50; for IC50: purified enzyme 1 nM, nitrocefin 2 μM, pH 7.2, 25 °C. The class given is biochemical. As for the experimental part:
as §1

The next data set is described as follows: MTT cytotoxicity assay. The data set is classed as cell-based. As to conditions: human, HepG2 cells. As for the experimental part: Cytotoxic activity of the compounds was measured through the MTT colorimetric assay as previously described[60] using the Colorimetric (MTT) Kit for Cell Survival and Proliferation (Merck/Millipore; Darmstadt, Germany). HepG2 cells (human hepatocellular carcinoma cell line) were kept in penicillin/streptomycin-free medium overnight and then they were treated with the compounds for 24 h. Subsequently, the MTT reagent was added to the cells and after 3 h of incubation, MTT-derived formazan crystals were solubilized in acidified isopropanol (0.1 mL isopropanol with 0.04 N HCl). Absorbance was measured with multiscan spectrophotometer (Thermo Fisher Scientific) at 530 nm test and 630 nm reference wavelengths. Cell viability was expressed as the percentage of viable, untreated cells. CC50 values were determined with GraphPad Prism software (v9.3.1) and adjusted to dose-response curves by non-linear regression (Supplementary Table S7).
8. Cytotoxocity against HepG2 cells
Table S7. CC50 values and viability curves of metallo-β-lactamase inhibitors tested on HepG2 […]
cells. […]
range. Data are shown as % via bility values ± SEM (n=4). Calculations were done using […]
Inhibitors CC50 (μM) HepG2 […]
For orientation: Tetrazolium dyes change colour on reduction, which living cells bring about.

A further data set addresses VIM-2 (Escherichia coli, UniProt Q5U7L7). The experiment in a line: Enzymatic metallo-β-lactamase assay on purified VIM-2. The data set is classed as biochemical. Conditions: for Ki: approximated from Dixon plots (1/v vs [I]) at one constant substrate concentration, ± SE, read-out: Estimated inhibition constant Ki VIM-2; for logIC50 VIM-2: log of IC50, ± SEM of logIC50; for IC50: purified enzyme 1 nM, nitrocefin 15 μM, pH 7.2, 25 °C. As for the experimental part:
as §1

[4] abbreviates: HepG2, MTT, read-out: CC50 (in viability curve).
The mark [5] stands for this setting: MTT, 0.0025 mM - 1mM concentration range, read-out: Cytotoxicity CC50 HepG2.

T1 sequence (Q704V1 entry or part of it): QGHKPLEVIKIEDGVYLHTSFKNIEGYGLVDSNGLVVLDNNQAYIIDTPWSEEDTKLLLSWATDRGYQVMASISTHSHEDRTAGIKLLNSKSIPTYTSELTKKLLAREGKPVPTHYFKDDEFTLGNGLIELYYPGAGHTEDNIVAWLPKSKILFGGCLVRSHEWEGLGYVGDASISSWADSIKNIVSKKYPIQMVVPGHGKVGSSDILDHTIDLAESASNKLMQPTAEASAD
Sequence of NDM-1 (C7C422 29-270, looked up, species assumed): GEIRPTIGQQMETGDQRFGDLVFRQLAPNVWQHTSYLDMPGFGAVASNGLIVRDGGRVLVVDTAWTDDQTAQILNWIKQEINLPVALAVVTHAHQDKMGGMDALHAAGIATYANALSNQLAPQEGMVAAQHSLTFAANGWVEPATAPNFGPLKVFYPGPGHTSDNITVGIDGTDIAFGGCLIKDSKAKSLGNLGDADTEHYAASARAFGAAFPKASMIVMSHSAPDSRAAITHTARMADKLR

What is called Ki is a dissociation constant, usually derived from enzyme kinetics or from competition with a known ligand. In general, IC50 refers to the concentration that gives 50% inhibition. A lower IC50 goes with greater potency. What is called CC50 is the concentration at which the toxic effect on the cells reaches its halfway point. For the compound `O=C(NC(c1ccccc1O)P(=O)(O)O)c1cccs1` (stereo not drawn) [5a], in data set [1], the “main peak Area% kept in buffer for 1 month” value (“main peak Area% kept” for short) stood at 95.67% and the “main peak Area% right after dissolving in buffer” value (“main peak Area% right” below) is recorded as 95.87%. Further, on GIM-1 [2], the Ki is 144 ± 36 µM. Besides, at NDM-1, the Ki was 617 ± 95 µM, the “logIC50 NDM-1” value is recorded as 2.34 ± 0.09 log10(IC50/μM) and half-maximal inhibition (IC50) required 217 µM. In addition, at GIM-1 [3], the “logIC50 GIM-1” value was 1.30 ± 0.08 μM and the half-maximal inhibitory concentration (IC50) worked out at 20 µM. For the same compound, the half-maximal cytotoxic concentration (CC50) at 24 h in “MTT cytotoxicity assay” (setting [4]) amounted to 4500 µM. Besides, in the data set “MTT cytotoxicity assay” (setting [5]), the CC50 at 24 h came to 4550 µM. Besides, at VIM-2, the Ki is 36 ± 6 µM, the “logIC50 VIM-2” value was 1.85 ± 0.07 μM and the IC50 is 71 µM.
In the case of `O=C(NC(c1ccccc1O)P(=O)(O)O)c1ccsc1` (stereo not drawn) [5b], in data set [1], the “main peak Area% kept” value is on record as 95.03% and the “main peak Area% right” value came to 95.46%. In addition, the Ki at GIM-1 [2] is 162 ± 21 µM. In addition, on NDM-1, the Ki is 451 ± 57 µM, the “logIC50 NDM-1” value is 1.99 ± 0.13 log10(IC50/μM) and the IC50 came out at 97 µM. On GIM-1 [3], the “logIC50 GIM-1” value was 2.37 ± 0.21 μM and it took 236 µM to reach half-maximal inhibition (IC50). For the same compound, the CC50 at 24 h in “MTT cytotoxicity assay” (setting [4]) is 1800 µM. The CC50 at 24 h in the data set “MTT cytotoxicity assay” (setting [5]) was 1830 µM. Besides, at VIM-2, the Ki is 112 ± 11 µM, the “logIC50 VIM-2” value was 2.10 ± 0.08 μM and half-maximal inhibition (IC50) was put at 124 µM.
With `O=C(NC(c1ccccc1O)P(=O)(O)O)c1cc2c(s1)CCCC2` (stereo not drawn) [5e], in data set [1], the “main peak Area% kept” value is given as 98.87% and the “main peak Area% right” value is 98.53%. In addition, the Ki on GIM-1 [2] was 76 ± 5 µM. In addition, at GIM-1 [3], the “logIC50 GIM-1” value came to 1.73 ± 0.12 μM and the IC50 was determined as 53 µM. For the same compound, the CC50 at 24 h in the data set “MTT cytotoxicity assay” (setting [4]) is over 1000 µM. Besides, the CC50 at 24 h in “MTT cytotoxicity assay” (setting [5]) is over 1000 µM. On VIM-2, the Ki was 72 ± 7 µM, the “logIC50 VIM-2” value is on record as 1.90 ± 0.11 μM and the IC50 turned out to be 79 µM.
Turning to `O=C(NC(c1ccccc1O)P(=O)(O)O)c1ccccc1` (stereo not drawn) [5h], in data set [1], the “main peak Area% kept” value is given as 95.39% and the “main peak Area% right” value was found to be 95.97%. Besides, at GIM-1 [2], the Ki was 118 ± 20 µM. Besides, on NDM-1, the Ki is 363 ± 86 µM; the “logIC50 NDM-1” value was 1.93 ± 0.09 log10(IC50/μM); the midpoint of inhibition, the IC50, lay at 85 µM. For the same compound, at GIM-1 [3], the “logIC50 GIM-1” value came to 1.54 ± 0.13 μM and the IC50 worked out at 35 µM. In “MTT cytotoxicity assay” (setting [4]), the CC50 at 24 h was over 1000 µM. Also, the CC50 at 24 h in “MTT cytotoxicity assay” (setting [5]) was over 1000 µM. For the same compound, at VIM-2, the Ki is 85 ± 12 µM, the “logIC50 VIM-2” value came to 1.74 ± 0.05 μM and the IC50 was 55 µM.
For `O=C(Cc1cc2ccccc2s1)NC(c1ccccc1O)P(=O)(O)O` (stereo not drawn) [5k], in data set [1], the “main peak Area% kept” value turned out to be 98.27% and the “main peak Area% right” value is recorded as 98.10%. Besides, the Ki on GIM-1 [2] was 189 ± 76 µM. For the same compound, on NDM-1, the Ki was 262 ± 41 µM, the “logIC50 NDM-1” value is recorded as 1.81 ± 0.11 log10(IC50/μM) and the IC50 came to 65 µM. Moreover, at GIM-1 [3], the “logIC50 GIM-1” value was 1.90 ± 0.08 μM and the half-inhibitory concentration (IC50) was found to be 80 µM. In the data set “MTT cytotoxicity assay” (setting [4]), the half-maximal cytotoxic concentration (CC50) at 24 h is 5600 µM. Further, the CC50 at 24 h in “MTT cytotoxicity assay” (setting [5]) turned out to be 5610 µM. Further, on VIM-2, the Ki is 119 ± 13 µM, the “logIC50 VIM-2” value was determined as 1.71 ± 0.07 μM and the IC50 was 51 µM.
As for `O=C(Cc1csc2ccccc12)NC(c1ccccc1O)P(=O)(O)O` (stereo not drawn) [5l], in data set [1], the “main peak Area% kept” value is 98.10% and the “main peak Area% right” value turned out to be 98.54%. The inhibitory constant (Ki) on GIM-1 [2] is 193 ± 41 µM. Moreover, at NDM-1, the Ki was 411 ± 160 µM, the “logIC50 NDM-1” value is 1.83 ± 0.05 log10(IC50/μM) and the IC50 turned out to be 67 µM. Further, at GIM-1 [3], the “logIC50 GIM-1” value was found to be 1.71 ± 0.07 μM and the midpoint of inhibition, the IC50, lay at 51 µM. For the same compound, the CC50 at 24 h in “MTT cytotoxicity assay” (setting [4]) worked out at 3900 µM. In the data set “MTT cytotoxicity assay” (setting [5]), the CC50 at 24 h was 3910 µM. At VIM-2, the Ki was 39 ± 5 µM, the “logIC50 VIM-2” value was 1.42 ± 0.18 μM and the IC50 was 26 µM.
`O=C(Cc1ccccc1)NC(c1ccccc1O)P(=O)(O)O` (stereo not drawn) [5m]: the “main peak Area% right” value in data set [1] is recorded as 96.96%. For the same compound, at GIM-1 [2], the inhibitory constant (Ki) is 213 ± 22 µM. For the same compound, on GIM-1 [3], the “logIC50 GIM-1” value was 2.08 ± 0.53 μM and the IC50 is 121 µM. For the same compound, the CC50 at 24 h in the data set “MTT cytotoxicity assay” (setting [4]) was over 1000 µM. For the same compound, in “MTT cytotoxicity assay” (setting [5]), the CC50 at 24 h was over 1000 µM. Moreover, on VIM-2, the Ki is 74 ± 7 µM, the “logIC50 VIM-2” value worked out at 1.87 ± 0.35 μM and the IC50 came out at 74 µM.
